This is an account of results in publication PMC6918103 (Advanced Science, 2019).

Values joined by “and” are separate entries in the source; they are usually repeats but may differ in a detail not shown here. Equal entries are not always repeated.

Data set [1] is described as follows: Hepatic and renal function analysis. In kind it is in vivo, female BALB/c mice. The note with it: mice after treatment. The text has this: Gastrointestinal toxicity evaluation
Nine female BALB/c mice were divided into four groups (n=3 each group) and were […]
saline (control) every day. Five days later, the mice were sacrificed and their blood was obtained for hepatic and renal function analysis. The stomach, duodenum, jejunum and ileum were taken and fixed in 4% paraformaldehyde solution for hematoxylin and eosin (H&E) staining. The histological sections were imaged using an optical microscope.
Student's t-test was used to determine significant differences between the two groups.
When p<0.05, there was a significant difference, and very significant differences between two groups were defined as p<0.01.

The nature of data set [2]: Simulated intestinal digestion in bile-pancreatic juice (TG prodrug remaining, MG prodrug generated). In kind it is in vitro ADME, rat. The protocol: (§1) Simulated intestinal digestion
(§2) Bile-pancreatic juice was obtained from the common bile duct of anesthetized rats, which contained bile as well as pancreatic juice as previously described. Then, 20 µL of emulsion was incubated with 180 µL bile-pancreatic juice at 37°C with gentle shaking to simulate intestinal digestion. Samples (20 µL) of the incubation solution were taken at regular intervals (0, 0.08, 0.25, 0.5, 1, 2, 3 h) and added to 180 µL of ACN to analyze the concentration of the TG prodrugs and the monoglyceride derivatives of DTX (MG prodrugs) by HPLC. The solubility of prodrugs in aqueous phase were also determined. […] 20 µL of aqueous phase were collected and the concentration of the TG prodrugs and MG prodrugs were determined as above. The fraction of TG-like prodrugs and MG-like prodrugs partitioning in mix micelle phase (aqueous phase) relative to those in raw digesta were calculated to evaluate the solubility of the prodrugs. At the same time, the particle sizes of mix micelles were measured by Malvern laser particle size analyzer. […]
(§3) In order to study the stability of linkers in circulation, TG prodrugs were incubated with rat plasma supplemented with lipoprotein lipase (LPL, 10000 IU/mL) in which TG prodrugs can be hydrolyzed into MG prodrugs rapidly. […] The concentration of TG, MG prodrugs and free DTX were determined by HPLC. […]

A short description of data set [3]: Partition into mixed micellar phase and mixed micelle size after 3 h digestion. In kind it is in vitro ADME. The note with it: Sprague-Dawley, rat. The protocol: as §1, §2, §3
Data set [4] is described as follows: Stability of prodrugs in rat plasma supplemented with lipoprotein lipase. The note with it: 12 h. The data set is classed as in vitro ADME.
The nature of data set [5]: In situ recirculating intestinal perfusion (absorption rate Ka, with or without orlistat). The note with it: rats.
Description: density of 10*10 5 cells per well and cultured for 24h. The cells were washed by PBS
for 3 times and then digested and counted. The cell pellet was resuspended by protein
removal reagent M solution. The cellular GSH concentration were then assayed using
Trace Glutathione Assay Kit (Njjcbio, Nanjing, China).
Sprague–Dawley (SD) rats (180-220g) and BalB/c mic (18-22g) were obtained from
the Laboratory Animal Center of Shenyang Pharmaceutical University (Shenyang,
To evaluate the intestinal permeability of the prodrugs, an in situ recirculating perfusion
study was applied as previously described [5] with slight modifications.
µg/mL using Krebs Ringer’s (KR) buffer solution as the perfusate. Male rats were
fasted for 12 h prior to the experiment and then were anesthetized with an i.p. injection
of urethane (1.0 g/kg). The rats were placed under an infrared lamp to maintain a normal
body temperature. The abdomen was opened along the midline with a 3~4-cm
longitudinal incision. The inlet tube was inserted at upper duodenum and the outlet tube
was inserted at the end of the ileum. […]
was recorded at the same time. […]
at a dosage of 240 mg/kg (i.g.) before the surgery. The dead volume was determined by
air blowing using the peristaltic pump. The absorption rate Ka was calculated as follows: […]
The DTX concentrations in the plasma of all test groups were determined by a validated […]
The test system of another data set is 4T1 cells. As to the kind of experiment: MTT cytotoxicity in 4T1 cells. The data set is classed as cell-based.
Another data set concerns KB cells. Description: MTT cytotoxicity in KB cells. The data set is classed as cell-based.
A further data set concerns 4T1 xenograft tumors. As to the kind of experiment: In vivo antitumor effect (tumor volume, tumor burden, body weight, H&E of organs). Also on record: species or system female BALB/c mice. The note with it: 4T1 tumor bearing mice; po, 20 mg kg^−1 equivalent to DTX, every alternate day for 10 days. The protocol:
F௥௘௟ = AUCா௠௨௟௦௜௢௡ ∙Doseௌ௢௟/AUCௌ௢௟/Doseா௠௨௟௦௜௢௡
Fab = AUCp.o. ∙ Dosei.v./AUCi.v./Dosep.o.
Absorption mechanism and biodistribution of TG-mimetic prodrug
The PPa-S-S-TG was synthesized as scheme S2, the PPa-S-S-TG emulsion and its simulated intestinal digestion were implemented in accordance with the step of the TG-like DTX prodrug emulsion. Its reduction-responsibility was verified by incubation PBS with or without DTT. In brief, phosphate buffer solution (pH 7.4) (containing 30% ethanol (v/v)) with or without dithiothreitol (DTT) was used as the release media. The concentration of DTT was fixed at 10 mM. Then, 200 µL of the emulsions (PPa-S-S-TG) was incubated with 20 mL release media (reduction-sensitive or reduction-insensitive) at 37°C. At 0, 3, 12 h, 40 µL samples were taken and added to 160 µL of ACN for analysis. The content change of the PPa-S-S-TG was monitored by HPLC.
The PPa-S-S-TG and the PPa solution (10 mg/kg equivalent to PPa) were administrated to female BALB/c mice bearing the 4T1 cell line. At scheduled times the mice were sacrificed and the GITs, MLNs and tumors were taken out for fluorescence imaging by the Caliper IVIS ® Spectrum in vivo Imaging System. The intestinal tissue of PPa-S-S-TG group was then washed, fixed with 4% paraformaldehyde for 2 h, and dehydrated in 30% sucrose overnight. […]
was used as a control. […] Body weight and tumor volume were recorded every day. […]

Description for KB cells: 4T1 cells were cultured in RPMI 1640 medium with 10% FBS and KB cells were
cultured in high glucose DMEM medium with 10% FBS. All cells were maintained in a humidified atmosphere of 5% CO 2 at 37 °C. All the cell culture plastic product were obtained from Wuxi NEST Biotechnology Co., Ltd.
In vitro cytotoxicity and drug release in tumor cell
investigated in 4T1, KB and L02 cells. In brief, cells were added to 96-wells at a density of 5000 cells per well and cultured for 24 h and then the medium was discarded.
cells were incubated with different concentrations of DTX solution or prodrug
emulsions for 48 h or 72 h and cell viability was determined by MTT assay. The cells without any treatment were utilized as control (n=3 for each group).

As to `CC(=O)O[C@@]12CO[C@@H]1C[C@H](O)[C@@]1(C)C(=O)[C@H](O)C3=C(C)[C@@H](OC(=O)[C@H](O)[C@@H](NC(=O)OC(C)(C)C)c4ccccc4)C[C@@](O)([C@@H](OC(=O)c4ccccc4)[C@H]21)C3(C)C` [DTX i.g.], in data set [1] (AVERAGE of 3 animals), the ALT was found to be 41.6037 U/L, the AST is recorded as 150.819 U/L, the BUN came out at 8.409 mmol/L and the CR was 62.3087 µmol/L. Also, in data set [1] (individual animal), the ALT is 57.9809 U/L and 28.6275 U/L and 38.2028 U/L; the AST is 129.269 U/L and 163.103 U/L and 160.084 U/L; the BUN is 8.8262 mmol/L and 7.2013 mmol/L and 9.1982 mmol/L; the CR was 51.2097 µmol/L and 66.2585 µmol/L and 69.4579 µmol/L.

For `CCCCCCCCCCCCCCCC(=O)OCC(COC(=O)CCCCCCCCCCCCCCC)OC(=O)C(CCC(=O)O[C@@H](C(=O)O[C@H]1C[C@@]2(O)[C@@H](OC(=O)c3ccccc3)[C@@H]3[C@]4(OC(C)=O)CO[C@@H]4C[C@H](O)[C@@]3(C)C(=O)[C@H](O)C(=C1C)C2(C)C)[C@@H](NC(=O)OC(C)(C)C)c1ccccc1)OC(=O)C(C)(C)C` (stereo partly shown) [DTX‐5C(Piv)‐TG], the “Intestinal digestion (rate) in bile-pancreatic juice” value in data set [2] was “poorest intestinal digestion rate”. For the same molecule, the “Amount of MG derivative generated” value in data set [2] (Sprague-Dawley, rat, 3 h) is 74%. The “Partition of TG-like prodrug into the micellar phase” value in data set [3] was “about 40.2%”. The DTX released in data set [4] worked out at 10%. In addition, the “Ka, fold increase in comparison with the DTX solution” value in data set [5] is reported as 1.15 fold.

Take `CCCCCCCCCCCCCCCC(=O)OCC(COC(=O)CCCCCCCCCCCCCCC)OC(=O)CCCC(=O)O[C@@H](C(=O)O[C@H]1C[C@@]2(O)[C@@H](OC(=O)c3ccccc3)[C@@H]3[C@]4(OC(C)=O)CO[C@@H]4C[C@H](O)[C@@]3(C)C(=O)[C@H](O)C(=C1C)C2(C)C)[C@@H](NC(=O)OC(C)(C)C)c1ccccc1` [DTX‐5C‐TG]: the “Cytotoxicity (IC50 values)” value was 0.3571 µg/mL with 4T1 cells (48 h), 0.1569 µg/mL in the data set on 4T1 cells (72 h), 0.2265 µg/mL with KB cells (48 h) and 0.0882 µg/mL with KB cells (72 h). Moreover, the Tumor inhibition result in the data set with 4T1 xenograft tumors was “effective tumor inhibition”. Moreover, the “Ka, fold increase in comparison with the DTX solution” value in data set [5] is reported as 1.91 fold.
